Measurements from patent publication US4313943A, “7-Chloro-2,3-dihydro-5-phenyl-1-propargyl-1H-1,4-benzodiazepine-2-one, and a pharmaceutical composition thereof” (priority 1972, dated 1982).
“And” between values parts separate entries of the source, which are not always exact repeats. Equal values may be shown once. “Also recorded” adds a separate entry of the source.

Key:
[1] = Acute toxicity comparison (LD50, Litchfield and Wilcoxan); conditions: in vivo
Experimental: (§1) Toxicity in test animals to the test compounds in terms of LD50 after oral and intraperitoneal administration was determined according to the procedure of Litchfield and Wilcoxan (1949) and the hypnotic effect on test animals was determined in accordance with the method of Janssen (1959).

[2] = test system: dorsal hippocampus; assay: Hippocampal after-discharge (stimulation of dorsal hippocampus); assay type: in vivo; conditions: 7.5 mg/kg intragastric; for Duration of Hippocampal After-Discharge: individual animals
Experimental: (§2) The test animals for this study were also prepared according to the technique described by Monnier and Gangloff (infra B, page 30) and the animals were kept in restraint cages in a relatively soundproof room.
(§3) The activity of test compounds 1 and 4 was assessed in identical groups of test animals for each compound, with identical numbers of animals for hippocampal after-discharges and for amygdaloid after-discharges. A dose of 7.5 mg/kg of each test compound was adminstered by the intragastric route. In each animal, after-discharges were triggered every 45 minutes after the administration of a test compound.
(§4) The stimulation consisted of a series of waves with a duration of 3 m sec., delivered at a frequency of 40 c/sec., with 5 seconds as the total duration of the stimulation. The shocks were delivered by a Neurovar neurostimulator (Alvar Electronic), coupled to a CRC cathode oscilloscope (type OC 343). Cerebral electric activity was recorded by REEGA MINI HUIT electroencephalograph (Alvar Electronic).

[3] = Acute toxicity in the rat (oral); conditions: in vivo
Experimental: The test compounds shown in Table 2 were administered orally to male mice and rats in the form of a suspension in a 1% solution of sodium carboxymethyl cellulose. The LD50 (lethal dose 50%) was calculated by the method of Litchfield and Wilcoxon.

[4] = Effect on muscular relaxation in mice (30° inclined screen, Randall); assay type: in vivo
Experimental: The method utilized was the procedure described by Randall (1961) using a 30° inclined screen.

[5] = Reduction in motor activity between 60 and 90 minutes; assay type: in vivo; conditions: for Reduction in Motor Activity Between 60 and 90 Minutes: significance NS (comp. 1), 0.002 (comp. 4)
[6] = Hypnotic activity comparison (Janssen 1959); assay type: in vivo
Experimental: as §1

[7] = Conditioned avoidance response (shuttle box); assay type: in vivo; conditions: for Number of Conditioned Avoidance Responses: CMC 1% 16.7 ± 0.3
Experimental: Conditioned avoidance response by trained animals in a conventional shuttle box procedure was determined after oral administration of Compounds 1 and 4.

[8] = Motor coordination in the rat (Rota-rod method, Dunham and Miya); assay type: in vivo
Experimental: The method of Dunham and Miya was used, which consists in placing the test animal on a rod rotating at 14 r.p.m., and recording the percentage of animals which fall off within 2 minutes. The test compound 1 was administered orally to the animals, in the various doses shown in Table 1, as a suspension in 1% sodium carboxymethyl cellulose solution. The animals were then tested 30 minutes and 60 minutes after the administration of the test compound.

[9] = Postural tonus in restrained animals; assay type: in vivo; conditions: more pronounced effect of compound 4 especially at 30 mg/kg
Excerpt: The final observations were concerned with the influence of the test compounds on postural tonus. Evaluationg postural tonus in the animals kept in restraint cages was somewhat difficult. It was possible to judge this aspect by pulling the hind quarters of the animals out of the cage and observing whether the animals was capable of returning spontaneously to its position inside the cage, which control animals were able to do immediately.

[10] = test system: posterior amygdaloid complex; assay: Amygdaloid after-discharge (stimulation of posterior amygdaloid complex); assay type: in vivo; conditions: 7.5 mg/kg intragastric; for Duration of Amygdaloid After-Discharge: individual animals
Experimental: as §2, §3, §4

[11] = Motor coordination in rats (rotarod, Dunham and Miya 1957)
[12] = Emotional conditioning response (CER) in rats (Brady, Skinner box); assay type: in vivo
Excerpt: The method utilized that was published by Brady (1956) using a Skinner Box and a combination of a sound, a light and an electrical shock to produce anxiety in the test animals.
The more an animal is anxious, the less important is the score. When a test compound is a powerful anxiolytic, the value of the score is proportional to the dosage.

[13] = Rotarod test, equilibrium (Table 6); assay type: in vivo
[14] = Spontaneous mobility (Svenson and Thieme); assay type: in vivo
Experimental: Spontaneous mobility in test animals was determined by the Svenson and Thieme procedure as published in Psychopharmacologia, Vol. 14, 1969, pages 157 et seq.

[15] = ECoG and sedation in test animals free to move; assay type: in vivo
Experimental: Some test animals were kept in restraint cases placed in a relatively soundproof room and some were left free to move in metal cases measuring 40×50×30 cm, which were also kept in a relatively quiet environment.
In the test animals which were free to move, the first signs of sedation produced by the intragastric administration of 7.5 mg/kg of compounds 1 and 4 appeared, respectively, at 16 minutes (compound 1) and at 8 minutes (compound 4). […] The duration of the effect was, however, shorter, not exceeding 3 hours under these conditions in contrast to the 5 hour minimum for restricted animals.

[16] = 7.5 mg/kg intragastric, animals free to move

## C#CCN1C(=O)CN=C(c2ccccc2)c2cc(Cl)ccc21 [Compound 1, 7-chloro-2,3-dihydro-5-phenyl-1-propargyl-1H-1,4-benzodiazepin-2-one]
[1]; po
  oral toxicity compared with Compounds 3 or 4: lower oral toxicity
[1]; Table 11, oral, species not given
  LD50: 5820 mg/kg
[2]
  effect on duration of hippocampal after-discharge: markedly increased the duration of after-discharges
[2]; 45 Mins.
  Duration of Hippocampal After-Discharge: 25 s and 14 s and 23 s and 18 s
[2]; 90 Mins.
  Duration of Hippocampal After-Discharge: 27 s and 21 s and 25 s and 11 s and 23 s
[2]; 135 Mins.
  Duration of Hippocampal After-Discharge: 27 s and 16 s and 26 s and 19 s and 25 s
[2]; 180 Mins.
  Duration of Hippocampal After-Discharge: 25 s and 23 s and 24 s and 27 s
[2]; 225 Mins.
  Duration of Hippocampal After-Discharge: 29 s and 26 s and 25 s and 23 s and 34 s
[2]; 270 Mins.
  Duration of Hippocampal After-Discharge: 23 s and 26 s and 21 s and 40 s
[3]
  LD50: 6490 mg/kg
[4]; 5 mg/kg/os
  % Relaxed Animals: 10%
[4]; 10 mg/kg/os
  % Relaxed Animals: 20%
[4]; 20 mg/kg/os
  % Relaxed Animals: 50%
[4]; 40 mg/kg/os
  % Relaxed Animals: 70%
[4]; Mus musculus, po, muscular relaxation, read-out: ED50 (and C.L.)
  ED50: 21.5 mg/kg
[4]; mouse, in vivo
  times less relaxant than compound 3: about 1.5 times
  times less relaxant than compound 4: about 5.6 times
[5]; 1 mg/kg
  Reduction in Motor Activity Between 60 and 90 Minutes: +19%
[5]; 3 mg/kg
  Reduction in Motor Activity Between 60 and 90 Minutes: -20%
[5]; in vivo
  changes in motor activity / voluntary motility: does not produce changes in motor activity
[6]; Table 11, species not given
  ED50: 857 mg/kg
[6]; in vivo
  hypnotic activity compared with Compounds 3 or 4: lower hypnotic activity
[7]; 5 mg/kg oral
  % Decrease (conditioned avoidance responses): -12%
  Number of Conditioned Avoidance Responses: 14.5 ± 0.7
[7]; 10 mg/kg oral
  % Decrease (conditioned avoidance responses): -19%
  Number of Conditioned Avoidance Responses: 13.4 ± 0.7
[7]; 20 mg/kg oral
  % Decrease (conditioned avoidance responses): -17%
  Number of Conditioned Avoidance Responses: 13.7 ± 0.9
[7]; 40 mg/kg oral
  % Decrease (conditioned avoidance responses): -44%
  Number of Conditioned Avoidance Responses: 9.3 ± 1.5
[7]; in vivo
  activity in reducing conditioned avoidance responses compared with Compound 2: less active than Compound 2
[8]; 3 mg/kg oral, 30 minutes after administration
  Percentage of animals falling within 2 minutes: 0%
[8]; 3 mg/kg oral, 60 minutes after administration
  Percentage of animals falling within 2 minutes: 0%
[8]; 6 mg/kg oral, 30 minutes after administration
  Percentage of animals falling within 2 minutes: 50%
[8]; 6 mg/kg oral, 60 minutes after administration
  Percentage of animals falling within 2 minutes: 17%
[8]; 12 mg/kg oral, 30 minutes after administration
  Percentage of animals falling within 2 minutes: 100%
[8]; 12 mg/kg oral, 60 minutes after administration
  Percentage of animals falling within 2 minutes: 50%
[9]
  reduction in postural tonus: slight reduction in the tonus
[10]
  effect on amygdaloid after-discharge: lasting inhibitory effect; also recorded: slightly more pronounced
[10]; 45 Mins.
  Duration of Amygdaloid After-Discharge: 15 s and 0 s and 35 s and 22 s
[10]; 90 Mins.
  Duration of Amygdaloid After-Discharge: 17 s and 0 s and 27 s
[10]; 135 Mins.
  Duration of Amygdaloid After-Discharge: 46 s and 0 s and 37 s
[10]; 180 Mins.
  Duration of Amygdaloid After-Discharge: 17 s and 0 s and 34 s
[10]; 225 Mins.
  Duration of Amygdaloid After-Discharge: 42 s and 46 s and 0 s and 35 s
[10]; 270 Mins.
  Duration of Amygdaloid After-Discharge: 45 s and 62 s and 0 s and 30 s
[11]; 48 mg/kg/os
  % Uncoordinated Animals: 25%
[11]; 68 mg/kg/os
  % Uncoordinated Animals: 50%
[11]; 96 mg/kg/os
  % Uncoordinated Animals: 75%
[11]; oral
  dose needed for same motor uncoordination as after Compound 3 or 4: about five times more
[11]; rat, rotarod, po
  TD50: 67.9 mg/kg
[12]; 1.25 mg/kg/os
  Number of Responses, After - CER: 77.83 ± 20.41
  Number of Responses, Before - CER: 94.67 ± 13.86
  Number of Responses, CER: 27.50 ± 11.32
[12]; 2.5 mg/kg/os
  Number of Responses, After - CER: 112.30 ± 17.56
  Number of Responses, Before - CER: 142.10 ± 20.03
  Number of Responses, CER: 62.10 ± 9.59
[12]; 5 mg/kg/os
  Number of Responses, After - CER: 128.75 ± 17.13
  Number of Responses, Before - CER: 127.13 ± 20.89
  Number of Responses, CER: 63.50 ± 14.96
[12]; rat, in vivo
  activity in antagonizing CER compared with Compound 3: about twice as active as Compound 3
  effectiveness in reducing anxiety compared with Composition 4: twice as effective in reducing anxiety as Composition 4
[13]; 1 mg/kg
  Rotarod Test % of Animals With Unchanged Equilibrium: 41.7%
[13]; 3 mg/kg
  Rotarod Test % of Animals With Unchanged Equilibrium: 58.3%
[13]; in vivo
  changes in equilibrium / motor coordination: does not produce changes in motor activity or in equilibrium
[14]; in vivo
  activity in depressing spontaneous mobility compared with Compound 4: approximately three times less active than Compound 4
[14]; po, read-out: oral ED50 (depressing spontaneous mobility)
  ED50: 76.6 mg/kg
[15]; [16]
  duration of the ECoG effect: ≤ 3 h
  first signs of sedation: 16 min
[15]; unrestricted animals, compound 3 at 10 mg/kg
  duration of ECoG effects (three compounds compared): about 31/2
